Assays:
Assay in all cases: Eurofins kinase selectivity profile against 380 other human recombinant kinases (Table S2)
Assay type in all cases: biochemical
[1] = target: T1, 380 human recombinant protein kinases (Homo sapiens, UniProt Q6IQ55); settings: TTBK2(h), read-out: Inhibition rate (%)
T1 construct: purchased Eurofins (Celle Lévescault)
Method in brief: (§1)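 Selectivity panel of 380 human recombinant protein kinases, screened by Eurofins at a range of concentrations.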

[2] = target: T2, 380 human recombinant protein kinases (Homo sapiens, UniProt P27448); settings: MARK3(h), read-out: Inhibition rate
T2 construct: purchased Eurofins (Celle Lévescault)
T2 sequence (P27448 whole entry): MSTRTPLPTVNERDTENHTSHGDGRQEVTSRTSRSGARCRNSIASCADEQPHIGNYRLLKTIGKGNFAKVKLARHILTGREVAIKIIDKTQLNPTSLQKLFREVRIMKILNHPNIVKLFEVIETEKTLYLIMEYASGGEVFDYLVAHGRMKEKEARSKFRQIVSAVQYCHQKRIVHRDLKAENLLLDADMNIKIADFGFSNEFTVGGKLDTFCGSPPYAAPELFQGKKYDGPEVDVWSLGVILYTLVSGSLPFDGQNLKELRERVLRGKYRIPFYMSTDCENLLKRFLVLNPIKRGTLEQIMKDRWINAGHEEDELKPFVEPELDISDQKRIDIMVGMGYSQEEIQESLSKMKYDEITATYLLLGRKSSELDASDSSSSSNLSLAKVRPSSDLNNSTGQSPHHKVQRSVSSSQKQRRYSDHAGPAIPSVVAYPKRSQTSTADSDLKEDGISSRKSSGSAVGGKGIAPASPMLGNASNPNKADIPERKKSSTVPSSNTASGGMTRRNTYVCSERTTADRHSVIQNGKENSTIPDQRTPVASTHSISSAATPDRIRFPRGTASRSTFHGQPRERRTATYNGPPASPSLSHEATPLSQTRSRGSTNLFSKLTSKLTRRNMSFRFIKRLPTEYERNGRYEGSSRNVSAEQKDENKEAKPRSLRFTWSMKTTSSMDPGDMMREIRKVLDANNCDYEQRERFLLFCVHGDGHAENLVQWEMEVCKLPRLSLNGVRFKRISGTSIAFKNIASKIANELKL
Method in brief: as §1

[3] = target: T3, 380 human recombinant protein kinases (Homo sapiens, UniProt Q99759); settings: MEKK3(h), read-out: Inhibition rate
T3 construct: purchased Eurofins (Celle Lévescault)
T3 sequence (Q99759 1-626): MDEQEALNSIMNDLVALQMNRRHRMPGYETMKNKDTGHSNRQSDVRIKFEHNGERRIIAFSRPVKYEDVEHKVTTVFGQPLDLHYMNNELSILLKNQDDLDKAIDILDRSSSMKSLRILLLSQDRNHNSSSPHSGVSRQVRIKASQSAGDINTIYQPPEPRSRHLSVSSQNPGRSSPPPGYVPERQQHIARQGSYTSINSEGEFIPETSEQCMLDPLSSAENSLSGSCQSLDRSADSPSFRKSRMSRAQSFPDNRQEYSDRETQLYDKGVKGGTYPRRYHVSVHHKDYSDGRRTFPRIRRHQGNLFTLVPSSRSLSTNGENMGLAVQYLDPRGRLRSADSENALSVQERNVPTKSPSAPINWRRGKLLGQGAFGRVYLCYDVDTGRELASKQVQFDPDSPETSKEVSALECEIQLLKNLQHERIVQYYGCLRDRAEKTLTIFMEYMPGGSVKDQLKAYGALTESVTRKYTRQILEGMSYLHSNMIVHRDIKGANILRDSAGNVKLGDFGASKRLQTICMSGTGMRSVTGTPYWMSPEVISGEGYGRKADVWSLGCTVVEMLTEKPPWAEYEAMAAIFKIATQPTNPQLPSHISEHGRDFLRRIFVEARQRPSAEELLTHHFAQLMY
Method in brief: as §1

[4] = target: T4, 380 human recombinant protein kinases (Homo sapiens, UniProt Q5VT25); settings: MRCKα(h), read-out: Inhibition rate
T4 construct: purchased Eurofins (Celle Lévescault)
Method in brief: as §1

[5] = target: T5, 380 human recombinant protein kinases (Homo sapiens, UniProt Q04912); settings: Ron(h), read-out: Inhibition rate
T5 construct: purchased Eurofins (Celle Lévescault)
T5 sequence (Q04912 25-1400): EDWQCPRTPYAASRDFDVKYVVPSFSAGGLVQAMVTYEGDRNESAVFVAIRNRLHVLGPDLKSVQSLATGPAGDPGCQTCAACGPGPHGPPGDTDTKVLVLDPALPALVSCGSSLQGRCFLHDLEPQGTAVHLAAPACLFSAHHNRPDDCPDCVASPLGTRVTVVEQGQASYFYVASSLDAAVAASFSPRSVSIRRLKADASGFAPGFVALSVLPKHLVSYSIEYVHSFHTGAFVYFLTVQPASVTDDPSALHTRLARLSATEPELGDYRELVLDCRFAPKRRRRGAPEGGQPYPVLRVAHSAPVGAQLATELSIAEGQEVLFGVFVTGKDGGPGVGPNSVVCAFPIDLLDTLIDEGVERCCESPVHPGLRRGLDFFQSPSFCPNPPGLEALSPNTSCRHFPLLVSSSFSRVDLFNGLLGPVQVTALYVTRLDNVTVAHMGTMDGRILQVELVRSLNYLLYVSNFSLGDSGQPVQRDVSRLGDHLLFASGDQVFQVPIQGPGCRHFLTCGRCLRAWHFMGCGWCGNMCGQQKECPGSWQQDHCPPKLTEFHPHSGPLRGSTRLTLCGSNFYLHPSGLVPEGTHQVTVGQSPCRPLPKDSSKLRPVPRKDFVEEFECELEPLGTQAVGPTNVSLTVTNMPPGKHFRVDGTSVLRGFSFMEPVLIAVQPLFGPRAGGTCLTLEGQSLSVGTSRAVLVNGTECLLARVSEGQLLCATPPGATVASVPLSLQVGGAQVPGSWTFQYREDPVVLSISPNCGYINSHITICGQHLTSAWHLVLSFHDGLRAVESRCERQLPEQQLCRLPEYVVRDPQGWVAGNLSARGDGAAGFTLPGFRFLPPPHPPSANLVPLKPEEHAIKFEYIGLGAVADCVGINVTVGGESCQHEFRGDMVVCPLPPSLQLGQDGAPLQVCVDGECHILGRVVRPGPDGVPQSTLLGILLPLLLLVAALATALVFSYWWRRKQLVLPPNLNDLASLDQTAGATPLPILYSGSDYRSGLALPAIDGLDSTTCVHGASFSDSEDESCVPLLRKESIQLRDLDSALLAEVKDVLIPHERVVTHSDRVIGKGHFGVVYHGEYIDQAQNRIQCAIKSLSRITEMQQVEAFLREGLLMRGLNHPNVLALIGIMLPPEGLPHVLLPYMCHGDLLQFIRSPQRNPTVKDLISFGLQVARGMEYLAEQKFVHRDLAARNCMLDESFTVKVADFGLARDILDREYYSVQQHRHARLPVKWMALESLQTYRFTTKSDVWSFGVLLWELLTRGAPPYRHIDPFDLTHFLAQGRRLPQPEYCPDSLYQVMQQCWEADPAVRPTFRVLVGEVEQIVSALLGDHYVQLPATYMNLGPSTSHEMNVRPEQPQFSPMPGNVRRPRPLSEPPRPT
Method in brief: as §1

[6] = target: T6, 380 human recombinant protein kinases (Homo sapiens, UniProt Q13177); settings: PAK2(h), read-out: Inhibition rate
T6 construct: purchased Eurofins (Celle Lévescault)
T6 sequence (Q13177 whole entry): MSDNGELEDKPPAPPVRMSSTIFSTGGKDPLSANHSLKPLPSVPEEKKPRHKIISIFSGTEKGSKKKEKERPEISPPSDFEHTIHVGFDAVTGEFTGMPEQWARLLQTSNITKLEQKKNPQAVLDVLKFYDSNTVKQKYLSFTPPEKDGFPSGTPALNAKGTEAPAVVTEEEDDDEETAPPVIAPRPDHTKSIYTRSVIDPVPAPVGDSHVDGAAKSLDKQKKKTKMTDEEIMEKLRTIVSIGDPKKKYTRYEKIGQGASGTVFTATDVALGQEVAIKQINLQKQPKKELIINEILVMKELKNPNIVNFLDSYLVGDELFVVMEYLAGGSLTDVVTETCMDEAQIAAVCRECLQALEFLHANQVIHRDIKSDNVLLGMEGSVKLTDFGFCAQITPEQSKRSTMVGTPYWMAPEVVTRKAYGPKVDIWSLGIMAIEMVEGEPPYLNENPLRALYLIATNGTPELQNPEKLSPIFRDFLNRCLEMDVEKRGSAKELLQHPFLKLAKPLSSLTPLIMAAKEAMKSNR
Method in brief: as §1

[7] = target: T7, 380 human recombinant protein kinases (Homo sapiens, UniProt Q9H4B4); settings: Plk3(h), read-out: Inhibition rate
T7 construct: purchased Eurofins (Celle Lévescault)
Method in brief: as §1

[8] = target: T8, 380 human recombinant protein kinases (Homo sapiens, UniProt Q15835); settings: GRK1(h), read-out: Inhibition rate
T8 construct: purchased Eurofins (Celle Lévescault)
T8 sequence (Q15835 1-563): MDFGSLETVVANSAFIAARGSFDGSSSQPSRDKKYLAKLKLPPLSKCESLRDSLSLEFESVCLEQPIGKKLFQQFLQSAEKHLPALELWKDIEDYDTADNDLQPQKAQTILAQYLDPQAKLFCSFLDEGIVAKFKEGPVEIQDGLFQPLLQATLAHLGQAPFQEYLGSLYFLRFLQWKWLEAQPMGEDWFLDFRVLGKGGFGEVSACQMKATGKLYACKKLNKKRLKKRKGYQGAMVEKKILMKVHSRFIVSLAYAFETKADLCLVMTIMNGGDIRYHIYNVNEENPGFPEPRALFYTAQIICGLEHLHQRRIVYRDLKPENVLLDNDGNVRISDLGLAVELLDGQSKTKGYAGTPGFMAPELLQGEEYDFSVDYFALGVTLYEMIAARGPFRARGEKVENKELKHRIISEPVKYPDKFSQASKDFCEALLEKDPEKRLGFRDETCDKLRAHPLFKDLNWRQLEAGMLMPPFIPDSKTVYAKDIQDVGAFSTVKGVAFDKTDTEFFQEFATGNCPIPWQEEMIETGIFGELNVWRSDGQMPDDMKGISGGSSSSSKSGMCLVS
Method in brief: as §1

[9] = target: T9, 380 human recombinant protein kinases (Homo sapiens, UniProt P00519, Y253F); settings: Abl(Y253F)(h), read-out: Inhibition rate
T9 construct: purchased Eurofins (Celle Lévescault)
Method in brief: as §1

[10] = target: T10, 380 human recombinant protein kinases (Homo sapiens, UniProt Q07002); settings: CDK18/cyclinY(h), read-out: Inhibition rate
T10 construct: purchased Eurofins (Celle Lévescault)
T10 sequence (Q07002 whole entry): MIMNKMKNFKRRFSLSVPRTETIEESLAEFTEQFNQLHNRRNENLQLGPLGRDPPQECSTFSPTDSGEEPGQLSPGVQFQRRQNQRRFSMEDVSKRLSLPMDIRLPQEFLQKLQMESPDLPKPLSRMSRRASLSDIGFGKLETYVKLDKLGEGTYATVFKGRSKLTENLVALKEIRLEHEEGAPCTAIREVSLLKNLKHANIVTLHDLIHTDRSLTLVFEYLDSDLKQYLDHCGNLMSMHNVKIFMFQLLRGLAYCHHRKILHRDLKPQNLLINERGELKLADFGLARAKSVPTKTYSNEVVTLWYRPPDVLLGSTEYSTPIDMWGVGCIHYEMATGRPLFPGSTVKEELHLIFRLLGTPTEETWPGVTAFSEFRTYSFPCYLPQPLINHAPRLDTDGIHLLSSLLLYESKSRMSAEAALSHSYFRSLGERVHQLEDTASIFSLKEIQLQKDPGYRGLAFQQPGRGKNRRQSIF
Method in brief: as §1

[11] = target: T11, 380 human recombinant protein kinases (Homo sapiens, UniProt Q9UQM7); settings: CaMKIIα(h), read-out: Inhibition rate
T11 construct: purchased Eurofins (Celle Lévescault)
T11 sequence (Q9UQM7 whole entry): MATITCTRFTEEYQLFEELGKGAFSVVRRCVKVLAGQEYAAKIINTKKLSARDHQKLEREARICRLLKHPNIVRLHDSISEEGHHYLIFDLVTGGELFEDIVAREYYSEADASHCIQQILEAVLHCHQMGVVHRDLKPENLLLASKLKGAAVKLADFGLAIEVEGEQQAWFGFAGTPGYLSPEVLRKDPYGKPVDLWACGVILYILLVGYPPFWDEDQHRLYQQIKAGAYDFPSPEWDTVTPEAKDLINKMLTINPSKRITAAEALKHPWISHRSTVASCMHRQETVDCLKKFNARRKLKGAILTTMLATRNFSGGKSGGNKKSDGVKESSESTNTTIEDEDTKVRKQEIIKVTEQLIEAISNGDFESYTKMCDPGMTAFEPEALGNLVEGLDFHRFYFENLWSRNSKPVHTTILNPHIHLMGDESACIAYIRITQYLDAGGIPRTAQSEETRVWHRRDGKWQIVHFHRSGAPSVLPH
Method in brief: as §1

[12] = target: T12, 380 human recombinant protein kinases (Homo sapiens, UniProt Q13131); settings: AMPKα1(h), read-out: Inhibition rate
T12 construct: purchased Eurofins (Celle Lévescault)
Method in brief: as §1

T1 sequence (Q6IQ55 whole entry): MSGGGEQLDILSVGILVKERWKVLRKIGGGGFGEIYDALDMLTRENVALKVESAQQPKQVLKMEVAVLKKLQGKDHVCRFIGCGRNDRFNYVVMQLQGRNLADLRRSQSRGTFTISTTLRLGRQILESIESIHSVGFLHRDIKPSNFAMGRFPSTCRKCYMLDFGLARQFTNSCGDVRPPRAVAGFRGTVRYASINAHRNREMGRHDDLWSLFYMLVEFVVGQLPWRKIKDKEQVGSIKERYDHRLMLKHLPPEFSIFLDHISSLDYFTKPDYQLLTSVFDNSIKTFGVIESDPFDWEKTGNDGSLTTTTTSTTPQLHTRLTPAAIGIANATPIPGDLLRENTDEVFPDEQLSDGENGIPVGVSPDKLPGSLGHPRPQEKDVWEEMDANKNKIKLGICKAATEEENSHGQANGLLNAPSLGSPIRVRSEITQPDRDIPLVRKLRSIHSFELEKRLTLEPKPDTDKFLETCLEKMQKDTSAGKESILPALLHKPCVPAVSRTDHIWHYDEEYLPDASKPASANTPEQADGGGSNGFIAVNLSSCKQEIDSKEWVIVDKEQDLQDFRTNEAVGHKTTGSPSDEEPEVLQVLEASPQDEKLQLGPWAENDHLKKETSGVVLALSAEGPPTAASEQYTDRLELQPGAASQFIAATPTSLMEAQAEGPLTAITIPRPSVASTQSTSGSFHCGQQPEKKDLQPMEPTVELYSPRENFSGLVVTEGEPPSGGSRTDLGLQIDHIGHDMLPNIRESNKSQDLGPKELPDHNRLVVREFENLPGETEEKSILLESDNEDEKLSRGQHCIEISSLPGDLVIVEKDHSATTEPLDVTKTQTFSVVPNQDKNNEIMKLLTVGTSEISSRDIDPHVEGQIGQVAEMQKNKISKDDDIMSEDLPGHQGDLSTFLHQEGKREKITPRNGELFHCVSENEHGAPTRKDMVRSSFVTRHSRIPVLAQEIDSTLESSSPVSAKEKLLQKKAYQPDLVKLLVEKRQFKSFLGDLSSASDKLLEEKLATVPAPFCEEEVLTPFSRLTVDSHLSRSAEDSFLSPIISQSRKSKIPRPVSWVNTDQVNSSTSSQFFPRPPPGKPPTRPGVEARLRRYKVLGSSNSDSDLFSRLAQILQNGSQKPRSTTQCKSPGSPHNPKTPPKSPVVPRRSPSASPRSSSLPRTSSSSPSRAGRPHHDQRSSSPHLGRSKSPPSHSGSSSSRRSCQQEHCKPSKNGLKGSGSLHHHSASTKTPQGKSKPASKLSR

C=CC(=O)Nc1cc(-c2cc(-c3cc4c([nH]3)CCNC4=O)ccn2)ccc1OC(F)(F)F [compound 11] showed an inhibition at 0.01 µM ([1]; 10 nM) of -1%, an inhibition at 0.1 µM ([1]; 100 nM) of -3% and an inhibition at 1 µM ([1]; 1000 nM) of 3%. It also gave an inhibition at 0.01 µM ([2]; 10 nM) of 2%, an inhibition at 0.1 µM ([2]; 100 nM) of -4% and an inhibition at 1 µM ([2]; 1000 nM) of 5%. It also gave an inhibition at 0.01 µM ([3]; 10 nM) of -5%, an inhibition at 0.1 µM ([3]; 100 nM) of 11% and an inhibition at 1 µM ([3]; 1000 nM) of 12%. For the same molecule, the inhibition at 0.01 µM ([4]; 10 nM) was -5%, the inhibition at 0.1 µM ([4]; 100 nM) was -3% and the inhibition at 1 µM ([4]; 1000 nM) was -3%. For the same molecule, the inhibition at 0.01 µM ([5]; 10 nM) was -4%, the inhibition at 0.1 µM ([5]; 100 nM) was 26% and the inhibition at 1 µM ([5]; 1000 nM) was 77%. The inhibition at 0.01 µM ([6]; 10 nM) was -3%, the inhibition at 0.1 µM ([6]; 100 nM) was -5% and the inhibition at 1 µM ([6]; 1000 nM) was -3%. It also gave an inhibition at 0.01 µM ([7]; 10 nM) of 10%, an inhibition at 0.1 µM ([7]; 100 nM) of 6% and an inhibition at 1 µM ([7]; 1000 nM) of 15%. The inhibition at 0.01 µM ([8]; 10 nM) was -6%, the inhibition at 0.1 µM ([8]; 100 nM) was -4% and the inhibition at 1 µM ([8]; 1000 nM) was -1%. For the same molecule, the inhibition at 0.01 µM ([9]; 10 nM) was 0%, the inhibition at 0.1 µM ([9]; 100 nM) was 2% and the inhibition at 1 µM ([9]; 1000 nM) was 21%. The inhibition at 0.01 µM ([10]; 10 nM) was -5%, the inhibition at 0.1 µM ([10]; 100 nM) was 2% and the inhibition at 1 µM ([10]; 1000 nM) was -3%. For the same molecule, the inhibition at 0.01 µM ([11]; 10 nM) was -3%, the inhibition at 0.1 µM ([11]; 100 nM) was -4% and the inhibition at 1 µM ([11]; 1000 nM) was -2%. It also gave an inhibition at 0.01 µM ([12]; 10 nM) of 6%, an inhibition at 0.1 µM ([12]; 100 nM) of 20% and an inhibition at 1 µM ([12]; 1000 nM) of 65%.
